Measured values taken from patent US10883992B2, “Universal kinase substrates and methods of use thereof” (Regents of the University of Minnesota, priority 2018, dated 2021).
Entries after “also recorded” stand apart in the source; their conditions may differ. Ends that are not written are not given here. Peptide text beside a SMILES is read from it. * marks the point of attachment. Biotin = O=C1N[C@H]2[C@H](CS[C@H]2CCCCC(=O)*)N1

Key:
Format in all cases: biochemical
EGFR (His6-EGFR 672-998) = biological target: T1, EGFR (His6-EGFR 672-998) (Homo sapiens, UniProt P00533); assay: Michaelis-Menten kinetic analysis of substrate peptides, [γ-33P]ATP radiolabel incorporation; conditions: for kcat: lower limit extrapolated from kcat/Km
T1 construct: His6-EGFR^672-998; His6 (N); made in house; host or cells: Sf9 insect cells
Source text: (§1) The mammalian expression vector to produce the intracellular portion of human FLT3 fused to GST (GST-FLT3^564-993) was generated by PCR amplifying the encoding sequence and subcloning into the BamHI and NotI sites of pEBG-2T. Mammalian expression vectors to produce BTK, SRC and SYK as GST fusion proteins were previously described. GST-tagged kinases were expressed in HEK293T cells and purified by affinity chromatography using glutathione Sepharose 4B as described (Deng, et al., Journal of Proteome Research 2014, 13, 4339). His6-EGFR^672-998 (“His6” disclosed SEQ ID NO: 25) and His6-ALK^1090-1416 (“His6” disclosed SEQ ID NO: 25) were expressed and purified from Sf9 insect cells as described (Park, et al., Biochemical Journal 2012, 448, 417; Bresler, et al., Science Translational Medicine 2011, 3, 108ra114). Human ABL was purchased from Life Technologies.
(§2) Biotinylated peptides (10 μM final concentration) were arrayed in a 384-well plate in 18 μL reaction buffer (50 mM HEPES, pH 7.5, 150 mM NaCl, 10 mM MgCl2, 1 mM DTT, 0.1% v/v Tween-20). Reactions were initiated by adding […] kinase (to 3-9 ng/μL) and [γ-^33P] ATP (to 50 μM, 0.025 μCi/μL) in reaction buffer. Plates were sealed and incubated at 30° C. for 30 min, and then 2 μL aliquots were transferred to streptavidin membrane (Promega SAM2 biotin capture membrane) using a pin-tool. […] Incorporation of radiolabel was quantified by phosphor imaging using QuantityOne software (Bio-Rad). After background correction, data were normalized such that the peptide with the greatest signal was 100%. Normalized data from at least two separate experiments were averaged and converted to heatmaps using Excel (Microsoft).
(§3) Final kinase concentrations were as follows: 0.3 ng/μL for ABL, BTK, SRC and SYK; 1.5 ng/μL for FLT3; 2.7 ng/μL for ALK and EGFR. At various incubation times (10, 20 and 30 min), 2 μL aliquots were transferred using a pin tool to P81 phosphocellulose paper (Reaction Biology), which was washed three times in 75 mM H3PO4, briefly washed in acetone and allowed to dry before exposing to a phosphor screen. Incorporation of radiolabel into peptides was quantified as above. After background correction, initial rates of reaction were determined by linear regression and fit to the Michaelis-Menten equation using Prism (GraphPad). […] Reported kinetic parameters are the average of three separate experiments except for FLT3 (two experiments).

Src = biological target: T2, Src (Homo sapiens, UniProt P12931); assay: as above; conditions: for kcat: lower limit extrapolated from kcat/Km
T2 construct: GST; made in house; host or cells: HEK293T cells
Source text: as §1, §2, §3

Abl = biological target: T3, Abl (Homo sapiens, UniProt P00519); assay: as above
T3 construct: purchased Life Technologies
T3 sequence (P00519 whole entry): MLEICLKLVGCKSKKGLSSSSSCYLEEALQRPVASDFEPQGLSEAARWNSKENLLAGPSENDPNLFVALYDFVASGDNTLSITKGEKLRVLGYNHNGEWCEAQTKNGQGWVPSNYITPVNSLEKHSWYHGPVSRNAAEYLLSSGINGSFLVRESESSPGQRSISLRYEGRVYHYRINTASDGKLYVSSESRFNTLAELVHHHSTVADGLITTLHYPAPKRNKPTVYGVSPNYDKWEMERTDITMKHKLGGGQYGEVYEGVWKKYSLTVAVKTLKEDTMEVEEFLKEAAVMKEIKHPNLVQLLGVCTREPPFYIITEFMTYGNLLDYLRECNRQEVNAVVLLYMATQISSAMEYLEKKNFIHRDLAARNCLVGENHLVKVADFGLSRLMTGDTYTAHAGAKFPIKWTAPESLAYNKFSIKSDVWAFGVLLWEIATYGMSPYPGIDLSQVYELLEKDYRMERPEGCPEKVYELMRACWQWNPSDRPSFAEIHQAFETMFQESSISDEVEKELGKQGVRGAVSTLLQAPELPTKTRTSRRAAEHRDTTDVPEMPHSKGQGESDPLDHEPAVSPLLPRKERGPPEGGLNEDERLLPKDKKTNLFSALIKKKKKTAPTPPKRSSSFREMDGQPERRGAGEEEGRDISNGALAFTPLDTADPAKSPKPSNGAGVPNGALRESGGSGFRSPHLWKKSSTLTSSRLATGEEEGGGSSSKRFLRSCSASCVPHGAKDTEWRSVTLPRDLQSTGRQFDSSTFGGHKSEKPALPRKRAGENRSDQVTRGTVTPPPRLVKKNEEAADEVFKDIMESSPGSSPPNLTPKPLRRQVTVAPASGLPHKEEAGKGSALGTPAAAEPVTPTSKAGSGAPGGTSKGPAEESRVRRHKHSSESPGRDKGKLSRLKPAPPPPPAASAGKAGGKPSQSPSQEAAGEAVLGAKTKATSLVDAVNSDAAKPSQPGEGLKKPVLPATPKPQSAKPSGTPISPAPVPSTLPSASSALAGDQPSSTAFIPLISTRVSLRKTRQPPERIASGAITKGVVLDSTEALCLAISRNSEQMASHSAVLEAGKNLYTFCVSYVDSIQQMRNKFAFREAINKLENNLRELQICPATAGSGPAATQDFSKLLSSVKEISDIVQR
Source text: as §1, §2, §3

BTK = biological target: T4, BTK (Homo sapiens, UniProt Q06187); assay: as above; conditions: for kcat: mean ± sem of fits
T4 construct: GST; made in house; host or cells: HEK293T cells
T4 sequence (Q06187 whole entry, species assumed): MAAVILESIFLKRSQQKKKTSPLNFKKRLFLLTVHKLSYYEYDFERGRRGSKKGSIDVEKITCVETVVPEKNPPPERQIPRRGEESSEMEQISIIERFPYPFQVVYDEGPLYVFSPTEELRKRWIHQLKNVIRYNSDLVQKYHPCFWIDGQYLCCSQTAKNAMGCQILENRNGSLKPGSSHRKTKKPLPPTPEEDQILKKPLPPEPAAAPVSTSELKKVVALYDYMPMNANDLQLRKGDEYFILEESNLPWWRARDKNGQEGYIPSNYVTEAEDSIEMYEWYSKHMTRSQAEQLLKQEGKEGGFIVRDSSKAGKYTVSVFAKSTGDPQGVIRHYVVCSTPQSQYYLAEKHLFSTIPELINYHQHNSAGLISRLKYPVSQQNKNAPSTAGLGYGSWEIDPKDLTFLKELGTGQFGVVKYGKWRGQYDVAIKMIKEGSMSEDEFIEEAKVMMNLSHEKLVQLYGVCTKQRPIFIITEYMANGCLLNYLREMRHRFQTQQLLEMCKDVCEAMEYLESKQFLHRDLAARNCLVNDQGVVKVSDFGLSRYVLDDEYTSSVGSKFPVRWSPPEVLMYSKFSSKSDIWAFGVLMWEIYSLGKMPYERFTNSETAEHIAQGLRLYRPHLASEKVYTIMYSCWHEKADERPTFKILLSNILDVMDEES
Source text: as §1, §2, §3

ALK (His6-ALK 1090-1416) = biological target: T5, ALK (His6-ALK 1090-1416) (Homo sapiens, UniProt Q9UM73); assay: as above; conditions: for kcat: lower limit extrapolated from kcat/Km
T5 construct: His6-ALK^1090-1416; His6 (N); made in house; host or cells: Sf9 insect cells
T5 sequence (Q9UM73 1090-1416): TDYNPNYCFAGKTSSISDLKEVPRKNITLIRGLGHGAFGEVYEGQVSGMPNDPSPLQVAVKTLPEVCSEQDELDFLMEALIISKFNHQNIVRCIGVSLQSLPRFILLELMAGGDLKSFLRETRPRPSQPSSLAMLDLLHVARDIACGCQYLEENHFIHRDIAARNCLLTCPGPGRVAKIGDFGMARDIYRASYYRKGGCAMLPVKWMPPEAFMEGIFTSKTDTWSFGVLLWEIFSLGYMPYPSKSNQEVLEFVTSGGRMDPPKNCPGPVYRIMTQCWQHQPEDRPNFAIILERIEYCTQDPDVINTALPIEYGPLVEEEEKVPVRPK
Source text: as §1, §2, §3

Syk = biological target: T6, Syk (Homo sapiens, UniProt P43405); assay: as above
T6 construct: GST; made in house; host or cells: HEK293T cells
Source text: as §1, §2, §3

FLT3 (GST-FLT3 564-993) = biological target: T7, FLT3 (GST-FLT3 564-993) (Homo sapiens, UniProt P36888); assay: as above; conditions: for kcat: mean ± sem of fits
T7 construct: human FLT3 fused to GST (GST-FLT3^564-993); GST (N); made in house; host or cells: HEK293T cells
T7 sequence (P36888 564-993): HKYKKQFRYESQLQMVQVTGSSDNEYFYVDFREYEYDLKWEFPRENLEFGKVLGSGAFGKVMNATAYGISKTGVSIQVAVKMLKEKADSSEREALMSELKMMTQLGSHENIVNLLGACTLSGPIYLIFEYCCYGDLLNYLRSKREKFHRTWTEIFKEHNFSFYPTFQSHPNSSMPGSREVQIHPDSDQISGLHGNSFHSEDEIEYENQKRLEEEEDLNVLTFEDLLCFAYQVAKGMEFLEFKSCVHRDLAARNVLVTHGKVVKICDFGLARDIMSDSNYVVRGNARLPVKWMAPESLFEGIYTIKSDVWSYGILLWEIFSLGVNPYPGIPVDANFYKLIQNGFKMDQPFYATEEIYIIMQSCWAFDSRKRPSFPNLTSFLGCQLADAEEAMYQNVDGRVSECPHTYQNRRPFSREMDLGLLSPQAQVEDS
Source text: as §1, §2, §3

panel of 15 PTKs = assay: Universal kinase substrate screen of the pilot library, [γ-33P]ATP incorporation; conditions: biotinylated peptides 10 μM; for phosphorylation by the panel of PTKs: 50 μM ATP, 30° C., 30 min, 15 PTKs; for average phosphorylation across the kinase panel: averaged over 15 PTKs (FIG. 1B)
Protocol: This pilot library was then subjected to an initial screen to test their phosphorylation by a panel of 15 PTKs that included 12 non-receptor TKs (representing all 10 NRTK families) and 3 receptor TKs (representing 3 RTK families). Pilot peptides were assayed alongside several previously reported substrates that were designed to be specific to individual kinases. Conversion to product was monitored via incorporation of phosphate from [γ-^33P] radiolabeled adenosine triphosphate (ATP). These intensities were normalized to background and visualized as a heat map in FIG. 1. […] By contrast, as previously reported, peptides that had been designed to specifically target individual kinases had more restricted reactivity.
as §2

[1] = peptide 2 relative to peptide 5
[2] = lower limit extrapolated from kcat/Km

| Molecule | kcat (EGFR (His6-EGFR 672-998)) | 2/5 kcat/Km ratio (EGFR (His6-EGFR 672-998); [1]) | kcat (Src) | 2/5 kcat/Km ratio (Src; [1]) | kcat (Abl; [2]) | 2/5 kcat/Km ratio (Abl; [1]) | kcat (BTK) | 2/5 kcat/Km ratio (BTK; [1]) | kcat (ALK (His6-ALK 1090-1416)) | 2/5 kcat/Km ratio (ALK (His6-ALK 1090-1416); [1]) | 2/5 kcat/Km ratio (Syk; [1]) | kcat (FLT3 (GST-FLT3 564-993)) | 2/5 kcat/Km ratio (FLT3 (GST-FLT3 564-993); [1]) | phosphorylation by the panel of PTKs (panel of 15 PTKs) | average phosphorylation across the kinase panel (panel of 15 PTKs) | kcat (Abl; mean ± sem of fits) | kcat (Syk; [2]) |
| --- | --- | --- | --- | --- | --- | --- | --- | --- | --- | --- | --- | --- | --- | --- | --- | --- | --- |
| CC[C@H](C)[C@H](NC(=O)[C@@H]1CCCN1C(=O)[C@H](CC(=O)O)NC(=O)[C@@H](N)CCC(=O)O)C(=O)N[C@@H](Cc1ccc(O)cc1)C(=O)N[C@H](C(=O)N[C@H](C(=O)N[C@@H](CC(C)C)C(=O)N[C@@H](CCC(=O)O)C(=O)NCC(=O)NCC(=O)N[C@@H](CCCCNC(=O)CCCC[C@@H]1SC[C@@H]2NC(=O)N[C@@H]21)C(=O)NCC(=O)NCC(N)=O)[C@@H](C)O)C(C)C [Peptide 2] (H-EDPIYVTLEGGK(Biotin)GG-NH2) | >0.005 s⁻¹ | 5.8 ± 0.2 | >40 s⁻¹ | 0.52 ± 0.07 | >4 s⁻¹ | 0.13 ± 0.01 | 0.061 ± 0.019 s⁻¹ | 0.31 ± 0.01 | >0.02 s⁻¹ | 1.23 ± 0.02 | 1.8 ± 0.2 | 0.013 ± 0.004 s⁻¹ | 1.43 ± 0.07 | phosphorylated by every PTK tested | highest average rate of phosphorylation across the entire panel of kinases; also recorded: highest phosphorylation averaged across the kinase panel |  |  |
| CC[C@H](C)[C@H](NC(=O)[C@H](C)NC(=O)[C@H](CCC(=O)O)NC(=O)[C@@H](N)CC(=O)O)C(=O)N[C@@H](Cc1ccc(O)cc1)C(=O)N[C@@H](C)C(=O)N[C@H](C(=O)N[C@H](C(=O)N[C@@H](C)C(=O)NCC(=O)NCC(=O)N[C@@H](CCCCNC(=O)CCCC[C@@H]1SC[C@@H]2NC(=O)N[C@@H]21)C(=O)NCC(=O)NCC(N)=O)C(C)C)[C@@H](C)O [Peptide 5] (H-DEAIYATVAGGK(Biotin)GG-NH2) | >0.001 s⁻¹ |  | >2 s⁻¹ |  |  |  | 0.26 ± 0.08 s⁻¹ |  | >0.02 s⁻¹ |  |  | 0.014 ± 0.004 s⁻¹ |  | phosphorylated by every PTK tested | highest average rate of phosphorylation across the entire panel of kinases; also recorded: highest phosphorylation averaged across the kinase panel | 16.5 ± 3.5 s⁻¹ | >0.1 s⁻¹ |
| DEPIYDTVEGGKbiotinGG (DEPIYDTVEGGK(Biotin)GG) [Peptide 6] |  |  |  |  |  |  |  |  |  |  |  |  |  | phosphorylated by every PTK tested |  |  |  |
